Test [1] deals with STEME = Stellaria media (L.) Vill. (common chickweed). The test is described as follows: Small plot field trial in winter wheat, foliar-applied, visual % control of STEME. Particulars: Trial 1, observed mean, 200 L/ha water, winter wheat crop stage 12-13, rates: isoxaben 40 g ai/ha, aminopyralid 5 g ae/ha, flufenacet 200 g ai/ha, diflufenican 100 g ai/ha. It counts as in vivo. The text has this:
(§1) Results in Table 1 are for foliar-applied compositions in small plot research experiments to evaluate the efficacy of the compositions in winter wheat. Application water volume was 200 liters per hectare (L/ha). Crop stage at time of application was 12-13. The values reported are means. […] Colby's equation was used to determine the herbicidal effects expected from the mixtures (Colby, S. R. Calculation of the synergistic and antagonistic response of herbicide combinations. Weeds 1967, 15, 20-22.).
(§2) More specifically, the following equation is used to calculate the expected activity of mixtures containing two herbicical active ingredients: Expected=A+B−(A×B/100) • A=observed efficacy of a first active ingredient at the same concentration as used in the mixture; • B=observed efficacy of the second active ingredient (or product, which may contain a combination of active ingredients) at the same concentration as used in the mixture. For mixtures containing three herbicidal active ingredients, the following equation was used to calculate the expected activity:
(§3) [formula] • A=observed efficacy of a first active ingredient at the same concentration as used in the mixture; • B=observed efficacy of a second active ingredient B at the same concentration as used in the mixture; • C=observed efficacy of a third active ingredient C at the same concentration as used in the mixture. The following abbreviations are used in Table 1: • GERDI=Geranium dissectum (cutleaf geranium) • STEME=Stellaria media (L.) Vill. (common chickweed) • g ai/ha=grams active ingredient per hectare • g ae/ha=grams acid equivalent per hectare • Ob=observed value of percent (%) control rated visually • Ex=expected value of percent (%) control as calculated by Colby's equation

Test [2] deals with GERDI = Geranium dissectum (cutleaf geranium). The test is described as follows: Small plot field trial in winter wheat, foliar-applied, visual % control of GERDI. It counts as in vivo. Particulars: Trial 1, observed mean, 200 L/ha water, winter wheat crop stage 12-13, rates: isoxaben 40 g ai/ha, aminopyralid 5 g ae/ha, flufenacet 200 g ai/ha, diflufenican 100 g ai/ha.
From the text: as §1, §2, §3

For `Nc1cc(Cl)nc(C(=O)O)c1Cl` [aminopyralid, 4-amino-3,6-dichloropyridine-2-carboxylic acid], the “VISUAL % CONTROL OF STEME 28 DAT Ob” value in test [1] stood at 0 e %. In test [2], the “VISUAL % CONTROL OF GERDI 28 DAT Ob” value is on record as 0 d %.
Consider `CC(C)N(C(=O)COc1nnc(C(F)(F)F)s1)c1ccc(F)cc1` [flufenacet, N-(4-fluorophenyl)-N-(1-methylethyl)-2-[[5-(trifluoromethyl)-1,3,4-thiadiazol-2-yl]oxy]acetamide], for which the “VISUAL % CONTROL OF STEME 28 DAT Ob” value in test [1] came out at 0 e %. Moreover, the “VISUAL % CONTROL OF GERDI 28 DAT Ob” value in test [2] was found to be 0 d %.
Regarding `CCC(C)(CC)c1cc(NC(=O)c2c(OC)cccc2OC)on1` [isoxaben, N-[3-(1-ethyl-1-methylpropyl)isoxazol-5-yl]-2,6-dimethoxybenzamide], the “VISUAL % CONTROL OF STEME 28 DAT Ob” value in test [1] is given as 0 e %. Moreover, in test [2], the “VISUAL % CONTROL OF GERDI 28 DAT Ob” value stood at 0 d %.

These data come from patent US9730444B2, “Herbicidal compositions comprising isoxaben and aminopyralid” (Dow AgroSciences LLC, priority 2013, dated 2017).
